One assay has as its system RT-4. The assay can be described thus: IC50 cell-based assay, adherent cells, RT-4. The note with it: Homo sapiens, Bladder, papilloma, 72 hours, read-out: IC50 of Compounds in Adherent Cell Types. The procedure: (§1) In one embodiment, the IC50s of the compounds provided herein were determined in cell-based assays using adherent cells. In one embodiment, the activity of the compounds provided herein were determined in a cell-based assay using the triple negative breast cancer cell line MDA-MB-468. In one embodiment, the adherent cells used in the cell-based assays may be a cell type selected from Table 1. In one embodiment, the cell-based assay may be carried out as provided herein. On day 0, cells were seeded at 20,000 cells per well in 100 µL of media into individual wells of a 96-well tissue culture plate. The next day, compounds were diluted to twice the desired final concentration and added in 100 µL of media for a final volume of 200 μL. Standard solutions for each compound were prepared at 1000× concentration in DMSO. The highest concentration was 30 mM. Serial 1:1 dilutions were made from there for a 6- or 9-point curve (e.g., 30 mM, 15 mM, 7.5 mM, etc). Compounds were then diluted 1:500 in media, and 100 µL of the resulting solution was added to each well for a final dilution of 1:1000. Each concentration of compound was tested in triplicate. Cells were incubated at 37° C. with 5% CO2. After 72 hours, 20 μL of CellTiter 96 Aqueous One Solution Cell Proliferation Assay (Promega) was added to each well. Cells were placed back in the incubator, and the absorbance at 490 nm was read after 2-3 hours. The concentration of compound that decreased the number of metabolically active cells by 50% was determined and reported as the IC50. “Percent Viability” was determined by subtracting the average background value (media only) and expressed as a ratio to the average value obtained from cells treated with only DMSO.

In the next assay the test system is FaDu. In words: IC50 cell-based assay, adherent cells, FaDu. The conditions noted are these: Homo sapiens, Pharynx, squamous cell, 72 hours, read-out: IC50 of Compounds in Adherent Cell Types. As to the method: as §1
Another assay concerns H-460. In words: IC50 cell-based assay, adherent cells, H-460. The note with it: Homo sapiens, NCI-H460, Lung, large cell carcinoma, 72 hours, read-out: IC50 of Compounds in Adherent Cell Types. The procedure: as §1
The test system of assay [1] is triple negative breast cancer cell line MDA-MB-468. In words: IC50 cell-based assay, adherent cells, MDA-MB-468. The conditions noted are these: Homo sapiens. As to the method: as §1
The IC50s of the compounds provided herein were determined in cell-based assay using triple negative breast cancer cell line MDA-MB-468.

In a further assay the test system is U87-MG. In words: IC50 cell-based assay, adherent cells, U87-MG. The conditions noted are these: Homo sapiens, U-87 MG, Brain, glioblastoma, 72 hours, read-out: IC50 of Compounds in Adherent Cell Types. The procedure: as §1
The next assay relates to MDA-MB-231. In words: IC50 cell-based assay, adherent cells, MDA-MB-231. The conditions noted are these: Homo sapiens, Breast, triple neg, 72 hours, read-out: IC50 of Compounds in Adherent Cell Types. The procedure: as §1
Another assay deals with MHH-CALL-4. In words: IC50 cell-based assay, suspension cells, MHH-CALL-4. The conditions noted are these: MHHCALL4, Leukemia, B-ALL (CRLF2 Hi), read-out: IC50 of Compounds in Suspension Cell Types. As to the method:
as §1
(§2) In one embodiment, the IC50s of the compounds provided herein were determined in cell-based assays using suspension cells. In one embodiment, the activity of the compounds provided herein were determined in a cell-based assay using the JeKo-1 cell line (mantle cell lymphoma) or the Pfeiffer cell line (diffuse large B-cell lymphoma). In one embodiment, the suspension cells used in the cell-based assays may be a cell type selected from Table 2. Assays with suspension cells were similar except that 40,000-60,000 cells were added to each well and compounds were added immediately after cell plating.

The next assay concerns MCF-7. In words: IC50 cell-based assay, adherent cells, MCF-7. The conditions noted are these: Homo sapiens, MCF7, Breast, ER+, 72 hours, read-out: IC50 of Compounds in Adherent Cell Types. As to the method: as §1
A further assay has as its system Z138, JeKo-1. The assay can be described thus: IC50 cell-based assay, suspension cells, Z138, JeKo-1. The conditions noted are these: Lymphoma, Mantle cell, read-out: IC50 of Compounds in Suspension Cell Types. The procedure: as §1, §2
For another assay, the system named is OVCAR-3. In words: IC50 cell-based assay, adherent cells, OVCAR-3. The note with it: Homo sapiens, Ovarian, adenocarcinoma, 72 hours, read-out: IC50 of Compounds in Adherent Cell Types. As to the method:
as §1

The subject of another assay is Pfeiffer. The assay can be described thus: IC50 cell-based assay, suspension cells, Pfeiffer. The note with it: Homo sapiens, Lymphoma, Diffuse large b-cell, read-out: IC50 of Compounds in Suspension Cell Types. The procedure:
as §1, §2

For the next assay, the system named is A549. In words: IC50 cell-based assay, adherent cells, A549. The conditions noted are these: Homo sapiens, Lung, NSCLC, 72 hours, read-out: IC50 of Compounds in Adherent Cell Types. The procedure:
as §1

Another assay deals with Kg1a. The assay can be described thus: IC50 cell-based assay, suspension cells, Kg1a. The conditions noted are these: Homo sapiens, KG-1a, Leukemia, AML, read-out: IC50 of Compounds in Suspension Cell Types. As to the method: as §1, §2
The test system of a further assay is Hep-G2. The assay can be described thus: IC50 cell-based assay, adherent cells, Hep-G2. The conditions noted are these: Homo sapiens, HepG2, Liver, hepatocellular carcinoma, 72 hours, read-out: IC50 of Compounds in Adherent Cell Types. As to the method:
as §1

Setting [2] is: MDA-MB-468, Breast, triple neg, 72 hours, Table 1, read-out: IC50 of Compounds in Adherent Cell Types.
Setting [3] is: MDA-MB-468 cells, Table 3, read-out: IC50 of Compounds in MDA-MB-468 Cells.

Where two headings read alike, the source gives them in different places.

By IC50 is commonly meant the concentration that inhibits the measured activity by half. On to `O=C(Nc1cc(C(F)(F)F)cc(C(F)(F)F)c1)c1cc(-c2ccc(Cl)cc2)oc1C(F)(F)F` [Compound 2, 5-(4-Chlorophenyl)-N-(3,5-bistrifluoromethylphenyl)-2-trifluoromethylfuran-3-carboxamide], for which the IC50 in the assay with RT-4 was more than 20 µM; with FaDu it was less than 5 µM; with H-460, more than 20 µM; in [1] (setting [2]) it was less than 5 µM; in assay [1] (setting [3]) it was 1.5 µM; in the assay on U87-MG, 5 to 10 µM. Further, the IC50 in the assay with MDA-MB-231 was less than 5 µM; in the assay on MHH-CALL-4, less than 5 µM; in the assay on MCF-7, 5 to 10 µM; in the assay on Z138, JeKo-1, less than 5 µM; in the assay on OVCAR-3, 5 to 10 µM; in the assay on Pfeiffer, less than 5 µM. For the same molecule, the values for the IC50 in the assay on A549, in the assay with Kg1a and in the assay on Hep-G2 were 5 to 10 µM, less than 5 µM and 5 to 10 µM, respectively.

In the case of `O=C(Nc1cc(C(F)(F)F)cc(C(F)(F)F)c1)c1cc(-c2ccccc2)oc1C(F)(F)F` [Compound 1, 5-Phenyl-2-trifluoromethyl-furan-3-carboxylic acid (3,5-bis-trifluoromethyl-phenyl)-amide], the IC50 in the assay with RT-4 was 10 to 20 µM; in the assay on FaDu, less than 5 µM; in the assay with H-460, 10 to 20 µM; in assay [1] (setting [2]) it was less than 5 µM; in assay [1] (setting [3]), 1.5 µM; in the assay with U87-MG, less than 5 µM. The IC50 in the assay with MDA-MB-231 was less than 5 µM; with MHH-CALL-4, 5 to 10 µM; in the assay with MCF-7 it was less than 5 µM; in the assay with Z138, JeKo-1, less than 5 µM; with OVCAR-3, less than 5 µM; with Pfeiffer, less than 5 µM. Moreover, the IC50 with A549 was less than 5 µM; in the assay with Kg1a it was less than 5 µM; in the assay on Hep-G2, 5 to 10 µM.

The record behind these values is US8722731B2, “Furanyl compounds and the use thereof” (NovoMedix, LLC, priority 2010, dated 2014).
